Test results taken from ChEMBL document CHEMBL3421596, “A facile synthesis and microtubule-destabilizing properties of 4-(1H-benzo[d]imidazol-2-yl)-furazan-3-amines” (Eur J Med Chem, 2015).
Calls of active or inactive are those of the source. The calls are words filed in the database; no cut-off is given here.

Key:
[1] = Cytotoxicity against human OVCAR4 cells; format: functional; conditions: OVCAR-4
[2] = tested on: BT-549; assay: Cytotoxicity against human BT549 cells; format: functional
[3] = tested on: NCI-H23; assay: Cytotoxicity against human NCI-H23 cells; format: functional
[4] = tested on: RXF 393; assay: Cytotoxicity against human RXF393 cells; format: functional; conditions: read-out: pGI50 (converted)
[5] = tested on: A498; assay: Cytotoxicity against human A498 cells; format: functional
[6] = Cytotoxicity against human Hs578T cells; format: functional; conditions: Hs-578T
[7] = Cytotoxicity against human NCI60 cells; format: functional
[8] = Cytotoxicity against human OVCAR8 cells; format: functional; conditions: OVCAR-8, read-out: pGI50 (converted)
[9] = Cytotoxicity against human OVCAR5 cells; format: functional; conditions: OVCAR-5
[10] = tested on: Paracentrotus lividus; assay: Antiproliferative activity in sea urchin embryo assessed as destabilization of microtubule by measuring embryo spinning after 15 mins to 20 hrs; format: functional
[11] = tested on: HL-60(TB); assay: Cytotoxicity against human HL-60(TB) cells; format: functional
[12] = Cytotoxicity against human UACC62 cells; format: functional; conditions: UACC-62
[13] = Cytotoxicity against human HCT15 cells; format: functional; conditions: HCT-15
[14] = tested on: MDA-MB-231; assay: Cytotoxicity against human MDA-MB-231 cells; format: functional
[15] = tested on: Paracentrotus lividus; assay: Antiproliferative activity in sea urchin embryo assessed as antimitotic activity by measuring cleavage arrest exposed for 8 to 20 mins after fertilization and 45 to 55 mins before first mitotic cycle completion measured 2.5 to […] after fertilization; format: functional
[16] = tested on: M14; assay: Cytotoxicity against human M14 cells; format: functional
[17] = tested on: SK-MEL-28; assay: Cytotoxicity against human SK-MEL-28 cells; format: functional
[18] = tested on: SR; assay: Cytotoxicity against human SR cells; format: functional
[19] = Cytotoxicity against human OVCAR3 cells; format: functional; conditions: OVCAR-3, read-out: pGI50 (converted)
[20] = tested on: A549; assay: Cytotoxicity against human A549 cells; format: functional
[21] = tested on: CAKI-1; assay: Cytotoxicity against human Caki1 cells; format: functional
[22] = tested on: MDA-MB-435; assay: Cytotoxicity against human MDA-MB-435 cells; format: functional; conditions: read-out: pGI50 (converted)
[23] = tested on: NCI-H226; assay: Cytotoxicity against human NCI-H226 cells; format: functional
[24] = tested on: ACHN; assay: Cytotoxicity against human ACHN cells; format: functional
[25] = tested on: U-251; assay: Cytotoxicity against human U251 cells; format: functional
[26] = tested on: 786-0; assay: Cytotoxicity against human 786-0 cells; format: functional
[27] = tested on: Malme-3M; assay: Cytotoxicity against human MALME-3M cells; format: functional
[28] = tested on: HT-29; assay: Cytotoxicity against human HT-29 cells; format: functional
[29] = tested on: MOLT-4; assay: Cytotoxicity against human MOLT4 cells; format: functional
[30] = Cytotoxicity against human PC3 cells; format: functional; conditions: PC-3
[31] = tested on: SK-MEL-2; assay: Cytotoxicity against human SK-MEL-2 cells; format: functional
[32] = tested on: HCC 2998; assay: Cytotoxicity against human HCC2998 cells; format: functional
[33] = tested on: DU-145; assay: Cytotoxicity against human DU145 cells; format: functional
[34] = tested on: K562; assay: Cytotoxicity against human K562 cells; format: functional
[35] = tested on: HOP-62; assay: Cytotoxicity against human HOP62 cells; format: functional
[36] = tested on: NCI-H522; assay: Cytotoxicity against human NCI-H522 cells; format: functional
[37] = tested on: Paracentrotus lividus; assay: Antiproliferative activity in sea urchin embryo assessed as antimitotic activity by measuring cleavage alteration exposed for 8 to 20 mins after fertilization and 45 to 55 mins before first mitotic cycle completion measured 2.5 to […] after fertilization; format: functional
[38] = Cytotoxicity against human UACC257 cells; format: functional; conditions: UACC-257
[39] = tested on: SF-268; assay: Cytotoxicity against human SF268 cells; format: functional
[40] = tested on: MCF7; assay: Cytotoxicity against human MCF7 cells; format: functional
[41] = tested on: CCRF-CEM; assay: Cytotoxicity against human CCRF-CEM cells; format: functional
[42] = tested on: SK-MEL-5; assay: Cytotoxicity against human SK-MEL-5 cells; format: functional
[43] = tested on: NCI-H322M; assay: Cytotoxicity against human NCI-H322M cells; format: functional
[44] = Cytotoxicity against human UO31 cells; format: functional; conditions: UO-31
[45] = tested on: RPMI-8226; assay: Cytotoxicity against human RPMI8226 cells; format: functional
[46] = tested on: SF-539; assay: Cytotoxicity against human SF539 cells; format: functional; conditions: read-out: pGI50 (converted)
[47] = tested on: NCI-H460; assay: Cytotoxicity against human NCI-H460 cells; format: functional
[48] = tested on: IGROV-1; assay: Cytotoxicity against human IGROV1 cells; format: functional
[49] = Cytotoxicity against human SKOV3 cells; format: functional; conditions: SK-OV-3
[50] = tested on: KM12; assay: Cytotoxicity against human KM12 cells; format: functional
[51] = tested on: T47D; assay: Cytotoxicity against human T47D cells; format: functional
[52] = Cytotoxicity against human NCI-ADR-RES cells; format: functional; conditions: read-out: pGI50 (converted)
[53] = tested on: SN12C; assay: Cytotoxicity against human SN12C cells; format: functional
[54] = tested on: HOP-92; assay: Cytotoxicity against human HOP92 cells; format: functional
[55] = tested on: SNB-19; assay: Cytotoxicity against human SNB19 cells; format: functional
[56] = tested on: SNB-75; assay: Cytotoxicity against human SNB75 cells; format: functional
[57] = tested on: COLO 205; assay: Cytotoxicity against human COLO205 cells; format: functional
[58] = tested on: TK-10; assay: Cytotoxicity against human TK10 cells; format: functional
[59] = tested on: Paracentrotus lividus; assay: Antiproliferative activity in sea urchin embryo assessed as destabilization of microtubule by tuberculate eggs after 15 mins to 20 hrs; format: functional, organism-based
[60] = Cytotoxicity against human HCT116 cells; format: functional; conditions: HCT-116
[61] = tested on: LOX IMVI; assay: Cytotoxicity against human LOXIMVI cells; format: functional
[62] = tested on: MDA-MB-468; assay: Cytotoxicity against human MDA-MB-468 cells; format: functional
[63] = tested on: SW-620; assay: Cytotoxicity against human SW620 cells; format: functional
[64] = biological target: Tubulin (Bos taurus, UniProt Q6B856+Q862L2+Q862F3); assay: Inhibition of bovine tubulin polymerization by turbidity assay; format: protein assay
[65] = tested on: SF-295; assay: Cytotoxicity against human SF295 cells; format: functional

## COc1cccc(Cn2c(-c3nonc3N)nc3ccccc32)c1
[1]
  GI50: 8710 nM
[2]
  GI50: 363 nM
[3]
  GI50: 832 nM
[4]
  GI50: 275 nM
[5]
  GI50: 275 nM
[6]
  GI50: 339 nM
[7]
  GI50: 457 nM
[8]
  GI50: 525 nM
[9]
  GI50: 550 nM
[10]
  EC: >5 µM
[11]
  GI50: 263 nM
[12]
  GI50: 513 nM
[13]
  GI50: 380 nM
[14]
  GI50: 955 nM
[15]
  EC: 2 µM
[16]
  GI50: 275 nM
[17]
  GI50: 813 nM
[18]
  GI50: 263 nM
[19]
  GI50: 263 nM
[20]
  GI50: 617 nM
[21]
  GI50: 417 nM
[22]
  GI50: 182 nM
[23]
  GI50: 525 nM
[24]
  GI50: 550 nM
[25]
  GI50: 437 nM
[26]
  GI50: 437 nM
[27]
  GI50: 525 nM
[28]
  GI50: 316 nM
[29]
  GI50: 724 nM
[30]
  GI50: 447 nM
[31]
  GI50: 288 nM
[32]
  GI50: 1170 nM
[33]
  GI50: 603 nM
[34]
  GI50: 347 nM
[35]
  GI50: 468 nM
[36]
  GI50: 229 nM
[37]
  EC: 0.2 µM
[38]
  GI50: 316 nM
[39]
  GI50: 759 nM
[40]
  GI50: 398 nM
[41]
  GI50: 339 nM
[42]
  GI50: 331 nM
[43]
  GI50: 871 nM
[44]
  GI50: 589 nM
[45]
  GI50: 363 nM
[46]
  GI50: 214 nM
[47]
  GI50: 363 nM
[48]
  GI50: 603 nM
[49]
  GI50: 437 nM
[50]
  GI50: 501 nM
[51]
  GI50: 501 nM
[52]
  GI50: 316 nM
[53]
  GI50: 646 nM
[54]
  GI50: 372 nM
[55]
  GI50: 741 nM
[56]
  GI50: 295 nM
[57]
  GI50: 372 nM
[58]
  GI50: 724 nM
[59]
  Activity: Active
[60]
  GI50: 389 nM
[61]
  GI50: 537 nM
[62]
  GI50: 240 nM
[63]
  GI50: 363 nM

## COc1cccc(Cn2c(-c3nonc3NC(C)=O)nc3ccccc32)c1
[7]
  GI50: 3980 nM
[10]
  EC: >4 µM
[15]
  EC: >4 µM
[37]
  EC: 1 µM

## Nc1nonc1-c1nc2ccccc2n1Cc1cccc(F)c1
[10]
  EC: >4 µM
[15]
  EC: >4 µM
[37]
  EC: 0.5 µM
[64]
  IC50: 7900 nM

## Nc1nonc1-c1nc2ccccc2n1Cc1cccc(Br)c1
[64]
  IC50: 2040 nM

## COc1cc(Cn2c(-c3nonc3N)nc3ccccc32)ccc1C
[1]
  GI50: 646 nM
[65]
  GI50: 389 nM
[2]
  GI50: 513 nM
[3]
  GI50: 1150 nM
[4]
  GI50: 269 nM
[5]
  GI50: 89.1 nM
[6]
  GI50: 288 nM
[7]
  GI50: 479 nM
[8]
  GI50: 759 nM
[9]
  GI50: 776 nM
[10]
  EC: >4 µM
[11]
  GI50: 275 nM
[12]
  GI50: 617 nM
[13]
  GI50: 457 nM
[14]
  GI50: 1450 nM
[15]
  EC: 2 µM
[16]
  GI50: 550 nM
[17]
  GI50: 794 nM
[18]
  GI50: 389 nM
[19]
  GI50: 309 nM
[20]
  GI50: 562 nM
[22]
  GI50: 170 nM
[23]
  GI50: 955 nM
[24]
  GI50: 724 nM
[25]
  GI50: 537 nM
[26]
  GI50: 646 nM
[27]
  GI50: 525 nM
[28]
  GI50: 363 nM
[29]
  GI50: 646 nM
[30]
  GI50: 339 nM
[31]
  GI50: 407 nM
[32]
  GI50: 1450 nM
[33]
  GI50: 513 nM
[34]
  GI50: 389 nM
[35]
  GI50: 617 nM
[36]
  GI50: 251 nM
[37]
  EC: 0.2 µM
[38]
  GI50: 417 nM
[39]
  GI50: 776 nM
[40]
  GI50: 389 nM
[41]
  GI50: 380 nM
[42]
  GI50: 372 nM
[43]
  GI50: 537 nM
[44]
  GI50: 575 nM
[45]
  GI50: 447 nM
[46]
  GI50: 200 nM
[47]
  GI50: 355 nM
[48]
  GI50: 724 nM
[49]
  GI50: 537 nM
[50]
  GI50: 437 nM
[51]
  GI50: 575 nM
[52]
  GI50: 389 nM
[53]
  GI50: 676 nM
[54]
  GI50: 363 nM
[55]
  GI50: 724 nM
[56]
  GI50: 263 nM
[57]
  GI50: 372 nM
[58]
  GI50: 1410 nM
[59]
  Activity: Active
[60]
  GI50: 513 nM
[61]
  GI50: 661 nM
[62]
  GI50: 229 nM
[63]
  GI50: 331 nM
